Source: patent US6133279A, “Therapeutic agents for renal diseases and organ preservatives” (Chugai Seiyaku Kabushiki Kaisha, priority 1996, dated 2000)
Read-outs that look alike come from different tables or passages of the source.

Assays:
[1] = test system: porcine kidney-derived LLC-PK1 cells; assay: Protective effect against oxidized LDL-induced injury of porcine kidney-derived LLC-PK1 cells (1); assay type: cell-based; settings: Sus scrofa, LLC-PK1, 6 h, mean ± standard deviation, read-out: Cytoprotection rate (%)
Experimental: (§1) For the purpose of evaluating in vitro cytoprotective effect of the compounds of the present invention, a cytoprotective study was performed using porcine kidney-derived LLC-PK1 cells (ATCC-CRL-13921) injured by oxidized low-density lipoprotein (oxidized LDL).
Oxidized LDL was prepared by incubating 1 mg/ml of rabbit LDL in PBS (-) in the presence of 10 μM CuSO4 at 37° C. for 24 hours. Cell culture was carried out by plating 1.25×10^4 cells/250 μl/well on a 48-well plate containing M199 medium containing 3% FBS. Test compounds were dissolved or suspended in ethanol and added to the wells in an amount of 1.25 μl/well to a concentration of 0.1, 1 or 10 μM in each well. After 16 hours or immediately after the addition of the compounds, oxidized LDL was added to the wells. Probucol, α-tocopherol and Trolox which is a water-soluble analogue of α-tocopherol were used as reference control compounds. Oxidized LDL was diluted twice with saline and then added to the wells in an amount of 62.5 μl/well to a concentration of 100 μg/ml and the cells were cultured for 6 hours after addition of the oxidized LDL. Then, 162.5 μl/well of the culture medium were collected and measured for the lactate dehydrogenase (LDH) level (LD-L: SIGNA DIAGNOSTICS) having leaked into the medium.
The magnitude of cytoprotective effect was expressed as the cytoprotection rate which was determined by calculating the data assuming that the magnitude in wells containing oxidized LDL is 0% and that the magnitude in wells containing saline is 100%.

[2] = test system: puromycin-induced nephrosis model; assay: Puromycin-induced nephrosis (2), postadministration (in vivo); set-up: species or system rat (male SD rats); settings: 200 mg/kg oral once a day from the day following puromycin; for Creatinine: control 0.82 ± 0.07; for Urine nitrogen: control 30.74 ± 10.95; for Creatinine clearance: control 824 ± 108
Experimental: Effect of the compounds of the present invention on an in vivo renal disease was studied using a puromycin-induced nephrosis model. A puromycin-induced renal failure model was prepared from rats in groups of 5-8 each (6 week-old male SD rats) fed with high-fat diet. High-fat diet feeding was started by free access to high-fat diet (cholesterol level 1.25%) from 7 days before puromycin treatment. Puromycin (puromycin aminonucleoside, SIGMA Chemical Co.) treatment was performed by intraperitoneal administration at a dose of 100 mg/kg. Test compounds were administered as a solution in soybean oil via oral route (4 ml/kg). Control group was orally administered soybean oil alone. Probucol and a water-soluble α-tocopherol analogue, Trolox, were used as reference control compounds. The compounds were orally administered once a day from the following day of the puromycin treatment. Renal functions were determined by using urine and blood samples. The volume of urine, urea nitrogen level and creatinine levels of serum and urine were evaluated to calculate creatinine clearance as an indication of renal functions.

[3] = test system: murine mesangial derived MES13 cells; assay: Protective effect against oxidized LDL-induced injury of murine mesangial cells (in vitro); assay type: cell-based; settings: Mus musculus, MES13, 10 h, mean ± standard deviation, read-out: Cytoprotection rate (%)
Experimental: For the purpose of evaluating in vitro cytoprotective effect of the compounds of the present invention on mesangial cells, a cytoprotective study was performed using murine mesangial derived MES13 cells (ATCC-CRL-1927) injured by oxidized LDL.
Oxidized LDL was prepared in the same manner as in Test example 1. Cell culture was carried out by plating 2.5×10^4 cells/250 μl/well on a 48-well plate using FBS-free medium (mixture of DME medium and F12 medium in a ratio of 3:1). Test compounds were dissolved or suspended in ethanol and added to the wells in an amount of 1.25 μl/well to a concentration of 1 or 10 μM in each well. After 16 hours or immediately after the addition of the compounds, oxidized LDL was added to cells in an amount of 25 μl/well to a concentration of 91 μg/ml and the cells were cultured for 10 hours after addition of the oxidized LDL. Then, 150 μl/well of the culture medium were collected and measured for the lactate dehydrogenase level (LDL: SIGMA DIAGNOSTICS) having leaked in the medium.
The magnitude of cytoprotective effect was expressed as the cytoprotection rate which was determined by calculating the data assuming that the magnitude in wells containing oxidized LDL is 0% and that the magnitude in containing saline is 100%.

[4] = test system: porcine kidney-derived LLC-PK1 cells; assay: Protective effect against oxidized LDL-induced injury of porcine kidney-derived LLC-PK1 cells (2); assay type: cell-based; settings: Sus scrofa, LLC-PK1, 6 h, mean ± standard deviation, read-out: Cytoprotection rate (%)
Experimental: as §1, with “LDL) in the same manner as in Test example 1 with the exception of some points.” for “LDL).”
Preparation of oxidized LDL and the conditions for cell culture and addition of test compounds were the same as in Test example 1. However, oxidized LDL was not diluted with saline and added to cells in an amount of 25 μl/well to a concentration of 91 μg/ml and the cells were cultured for 6 hours after addition of the oxidized LDL. Then, 150 μl/well of the culture medium were collected and measured for the lactate dehydrogenase (LDH) level (LD-L: SIGMA DIAGNOSTICS) having leaked in the medium.

[5] = compound added 16 hours before adding oxidized LDL
[6] = compound added immediately before adding oxidized LDL

## CC(C)(C)c1cc2c(c(C(C)(C)C)c1O)CC(Cc1ccccc1)(Cc1ccccc1)O2 [Example 16, 4,6-Di-t-butyl-2,2-dibenzyl-5-hydroxy-2,3-dihydrobenzofuran]
[1]; [5]
  inhibition at 0.1 µM: 12 ± 7.5%
  inhibition at 1 µM: 94.5 ± 4.9%
  inhibition at 10 µM: 98.3 ± 0.3%
[1]; [6]
  inhibition at 0.1 µM: -36.7 ± 6.6%
  inhibition at 1 µM: 74.4%
  inhibition at 10 µM: 99.6 ± 0.1%
[2]
  Creatinine: 0.73 ± 0.06 mg/dL
  Urine nitrogen: 31.82 ± 10.84 mg/dL
  Creatinine clearance: 925 mL/day

## CC(C)(C)c1cc2c(c(C(C)(C)C)c1O)CC1(CCCCCC1)O2 [Example 20, 4,6-Di-t-butyl-5-hydroxy-2,3-dihydrobenzofuran-2-spiro-1'-cycloheptane]
[1]; [5]
  inhibition at 0.1 µM: -11.3 ± 8.5%
  inhibition at 1 µM: 98.6 ± 1.2%
  inhibition at 10 µM: 106 ± 1.2%
[1]; [6]
  inhibition at 0.1 µM: -15.8 ± 8%
  inhibition at 1 µM: 99.9%
  inhibition at 10 µM: 102 ± 4.7%
[2]
  Creatinine: 0.61 ± 0.08 mg/dL
  Urine nitrogen: 25.40 ± 10.28 mg/dL
  Creatinine clearance: 1144 ± 172 mL/day

## CCOC(=O)/C=C/C1(C)Cc2c(cc(C(C)(C)C)c(O)c2C(C)(C)C)O1 (centres unmarked) [Example 75, Ethyl 3-(4,6-di-t-butyl-5-hydroxy-2-methyl-2,3-dihydrobenzofuran-2-yl)-2-propenoate]
[3]; [5]
  inhibition at 1 µM: -8 ± 2%
  inhibition at 10 µM: 64.5 ± 6.4%
[3]; [6]
  inhibition at 1 µM: 32.3 ± 2.4%
  inhibition at 10 µM: 79 ± 1.8%
[4]; [5]
  inhibition at 0.1 µM: 4.9 ± 2.7%
  inhibition at 1 µM: 26.6 ± 7%
  inhibition at 10 µM: 99.8 ± 0.9%
[4]; [6]
  inhibition at 0.1 µM: -4.9 ± 1.8%
  inhibition at 1 µM: 51.8%
  inhibition at 10 µM: 98.7 ± 0.4%

## CCOC(=O)CCC1(C)Cc2c(cc(C(C)(C)C)c(O)c2C(C)(C)C)O1 (centres unmarked) [Example 76, Ethyl 3-(4,6-di-t-butyl-5-hydroxy-2-methyl-2,3-dihydrobenzofuran-2-yl)propanoate]
[3]; [5]
  inhibition at 1 µM: -4.8 ± 4.1%
  inhibition at 10 µM: -17.2 ± 0.9%
[3]; [6]
  inhibition at 1 µM: 5.3 ± 3.9%
  inhibition at 10 µM: 34.1 ± 2.5%
[4]; [5]
  inhibition at 0.1 µM: -10.4 ± 4.2%
  inhibition at 1 µM: -2.8 ± 3.5%
  inhibition at 10 µM: 13.8 ± 4.2%
[4]; [6]
  inhibition at 0.1 µM: -12.8 ± 1.2%
  inhibition at 1 µM: -7.6%
  inhibition at 10 µM: 58.8 ± 9.5%

## CC1(C=CCCCC(=O)O)Cc2c(cc(C(C)(C)C)c(O)c2C(C)(C)C)O1 (centres unmarked) [Example 77, 6-(4,6-Di-t-butyl-5-hydroxy-2-methyl-2,3-dihydrobenzofuran-2-yl)-5-hexenoicacid]
[3]; [5]
  inhibition at 1 µM: 8.4 ± 0.4%
  inhibition at 10 µM: 2.5 ± 2.8%
[3]; [6]
  inhibition at 1 µM: 8.7 ± 2.3%
  inhibition at 10 µM: 24.3 ± 1.7%
[4]; [5]
  inhibition at 0.1 µM: 12.3 ± 2.7%
  inhibition at 1 µM: 6.1 ± 1.5%
  inhibition at 10 µM: 35.8 ± 4%
[4]; [6]
  inhibition at 0.1 µM: 9.1 ± 1.8%
  inhibition at 1 µM: 10.6%
  inhibition at 10 µM: 48.5 ± 2.1%

## CC1(CCCCCC(=O)O)Cc2c(cc(C(C)(C)C)c(O)c2C(C)(C)C)O1 (centres unmarked) [Example 78, 6-(4,6-Di-t-butyl-5-hydroxy-2-methyl-2,3-dihydrobenzofuran-2-yl)hexanoic acid]
[3]; [5]
  inhibition at 1 µM: 13.5 ± 5.6%
  inhibition at 10 µM: 7.6 ± 2.1%
[3]; [6]
  inhibition at 1 µM: 13.2 ± 1.4%
  inhibition at 10 µM: 51.3 ± 2.7%
[4]; [5]
  inhibition at 0.1 µM: -2.8 ± 0.9%
  inhibition at 1 µM: -10.7 ± 8.9%
  inhibition at 10 µM: 67.5 ± 6.1%
[4]; [6]
  inhibition at 0.1 µM: -11.6 ± 2.7%
  inhibition at 1 µM: -6.7%
  inhibition at 10 µM: 80.9 ± 1.5%

## CC1(CNC(N)=S)Cc2c(cc(C(C)(C)C)c(O)c2C(C)(C)C)O1 (centres unmarked) [Example 80, 1-[(4,6-Di-t-butyl-5-hydroxy-2-methyl-2,3-dihydrobenzofuran-2-yl)methyl]thiourea]
[3]; [5]
  inhibition at 1 µM: -7 ± 0.8%
  inhibition at 10 µM: 22.1 ± 0.7%
[3]; [6]
  inhibition at 1 µM: -1.3 ± 3.4%
  inhibition at 10 µM: 56.2 ± 2.4%
[4]; [5]
  inhibition at 0.1 µM: 9.2 ± 1.8%
  inhibition at 1 µM: 23.7 ± 5.8%
  inhibition at 10 µM: 102.4 ± 0.5%
[4]; [6]
  inhibition at 0.1 µM: -1.3 ± 1.4%
  inhibition at 1 µM: 10.7%
  inhibition at 10 µM: 102.6 ± 1%

## CC1(CNC(=N)NN)Cc2c(cc(C(C)(C)C)c(O)c2C(C)(C)C)O1 (centres unmarked) [Example 81, 1-Amino-3-[(4,6-di-t-butyl-5-hydroxy-2-methyl-2,3-dihydrobenzofuran-2-yl)methyl]guanidine]
[3]; [5]
  inhibition at 1 µM: -3.9 ± 1.5%
  inhibition at 10 µM: 7.3 ± 7.2%
[3]; [6]
  inhibition at 1 µM: 3.9 ± 2.2%
  inhibition at 10 µM: 73.4 ± 3.3%
[4]; [5]
  inhibition at 0.1 µM: 6.9 ± 3.1%
  inhibition at 1 µM: 4.2 ± 5.1%
  inhibition at 10 µM: 101.1 ± 0.1%
[4]; [6]
  inhibition at 0.1 µM: 8.8 ± 1.6%
  inhibition at 1 µM: 37.8%
  inhibition at 10 µM: 101.3 ± 0.1%

## CC1(COc2ccc(CNNC(=N)N)cc2)Cc2c(cc(C(C)(C)C)c(O)c2C(C)(C)C)O1 (centres unmarked) [Example 86, 1-{4-[(4,6-Di-t-butyl-5-hydroxy-2-methyl-2,3-dihydrobenzofuran-2-yl)methoxy]benzylamino}guanidine]
[3]; [5]
  inhibition at 1 µM: -1 ± 11.2%
  inhibition at 10 µM: -4.3 ± 1.9%
[3]; [6]
  inhibition at 1 µM: 19.8 ± 7%
  inhibition at 10 µM: 78.7 ± 0.7%
[4]; [5]
  inhibition at 0.1 µM: -0.4 ± 1.9%
  inhibition at 1 µM: 3.6 ± 5.8%
  inhibition at 10 µM: 40 ± 2.2%
[4]; [6]
  inhibition at 0.1 µM: -0.7 ± 2.3%
  inhibition at 1 µM: 0.2%
  inhibition at 10 µM: 102.5 ± 0.5%

## CC1(CNNC(=N)N)Cc2c(cc(C(C)(C)C)c(O)c2C(C)(C)C)O1 (centres unmarked) [Example 87, 1-[(4,6-Di-t-butyl-5-hydroxy-2-methyl-2,3-dihydrobenzofuran-2-yl)methylamino]guanidine]
[3]; [5]
  inhibition at 1 µM: 3.7 ± 3.3%
  inhibition at 10 µM: 35.5 ± 4.2%
[3]; [6]
  inhibition at 1 µM: 30.3 ± 3.8%
  inhibition at 10 µM: 86.2 ± 0.6%
[4]; [5]
  inhibition at 0.1 µM: -7.8 ± 4.4%
  inhibition at 1 µM: 6.5 ± 5.2%
  inhibition at 10 µM: 103.6 ± 0.5%
[4]; [6]
  inhibition at 0.1 µM: -0.3 ± 0.5%
  inhibition at 1 µM: 28.6%
  inhibition at 10 µM: 101.8 ± 0.6%

## CC(C)(Sc1cc(C(C)(C)C)c(O)c(C(C)(C)C)c1)Sc1cc(C(C)(C)C)c(O)c(C(C)(C)C)c1 [Probucol, probucol, reference compound]
[1]; [5]
  inhibition at 0.1 µM: 22.5 ± 15.1%
  inhibition at 1 µM: 36.4 ± 13.3%
  inhibition at 10 µM: 99.7 ± 1.1%
[1]; [6]
  inhibition at 0.1 µM: -1.8 ± 9.7%
  inhibition at 1 µM: 0.3%
  inhibition at 10 µM: 17 ± 7.8%
[2]
  Creatinine: 0.98 ± 0.13 mg/dL
  Urine nitrogen: 37.53 ± 7.53 mg/dL
  Creatinine clearance: 838 ± 187 mL/day
